The values below are quoted from earlier work in patent US20090264421A1 (priority 2007, published 2009).

One series concerns the target T1, TrxR1 (Homo sapiens, UniProt Q16881).
T1 sequence (Q16881 1-499 isoform Q16881-5): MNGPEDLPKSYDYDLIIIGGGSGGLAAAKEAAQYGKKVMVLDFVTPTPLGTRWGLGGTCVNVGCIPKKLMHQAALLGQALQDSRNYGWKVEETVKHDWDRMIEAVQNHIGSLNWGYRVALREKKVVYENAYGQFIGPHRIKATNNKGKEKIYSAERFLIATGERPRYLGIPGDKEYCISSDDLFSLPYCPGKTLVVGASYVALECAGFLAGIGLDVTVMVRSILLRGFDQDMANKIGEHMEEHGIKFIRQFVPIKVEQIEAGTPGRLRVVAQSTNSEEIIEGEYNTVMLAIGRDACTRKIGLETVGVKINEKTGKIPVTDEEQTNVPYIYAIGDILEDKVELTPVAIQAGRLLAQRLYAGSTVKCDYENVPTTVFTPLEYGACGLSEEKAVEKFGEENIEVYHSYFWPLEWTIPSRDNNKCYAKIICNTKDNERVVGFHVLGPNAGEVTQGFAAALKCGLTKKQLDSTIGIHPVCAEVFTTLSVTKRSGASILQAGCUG
The note with it: cited from earlier work.

For another series, the target named is T2, glutaredoxin (Homo sapiens, UniProt P35754).
T2 sequence (P35754 1-106): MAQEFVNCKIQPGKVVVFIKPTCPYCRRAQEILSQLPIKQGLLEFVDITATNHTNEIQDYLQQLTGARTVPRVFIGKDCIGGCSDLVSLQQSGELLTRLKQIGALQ
The note with it: cited from earlier work.

Regarding `COc1c(Cl)cc2c(c1OC)N(C)[C@@H]1N3C(=O)[C@@]4(C)SS[C@@]3(C(=O)N4C)[C@H](O)[C@]21O` [sporidesmin], the TrxR1 inhibition result at TrxR1 is listed as “not to significantly inhibit TrxR1”. The glutaredoxin inhibition entry at glutaredoxin is reported as “inhibitor of glutaredoxin”.
